Experimental findings from patent US7595320B2, “Hydrazinocarbonyl-thieno[2,3-C]pyrazoles, process for preparing them, compositions containing them and use thereof” (Aventis Pharma S.A., priority 2005, dated 2009) are described below.

The structures appear in SMILES notation. pIC50: −log10 of the molar value.

Format in all cases: biochemical
In one experiment the target is T1, CDK2/cycline E (Homo sapiens, UniProt P24941).
T1 construct: made in house; host or cells: Sf21 insect cells (baculovirus coinfection)
As to the kind of experiment: CDK2/cyclineE Flashplate test in 96-well format. The note with it: CDK2/cycline E complex, 1 μM ATP. The protocol: Two recombinant baculoviruses bearing the human sequences coding, respectively, for CDK2 and cyclineE (the latter bearing a C-terminal hexahistidine tag) are used to coinfect Sf21 insect cells. Two to three days after the start of coinfection, the cells are harvested by centrifugation and then stored at −40° C. until the time of use.
A format in streptavidin-coated 96-well plates is used to test the activity of the compounds on the kinase activity of CDK2/cycline E.
To perform this test, the biotinylated peptide substrate, a fragment of the protein pRb (biotinyl-[…]-OH), is dissolved at a concentration of 1 mM in kinase buffer (HEPES/NaOH 50 mM, NaCl 1 mM, MgCl2 5 mM, pH 7.5) in order to constitute a stock solution stored at −20° C. in the form of 110 μL aliquots. On the day of the experiment, an aliquot of this solution is thawed and diluted in kinase buffer containing 1 mM of dithiothreitol, added to the buffer extemporaneously, in order to obtain a concentration of 14.3 μM. 70 μL of this solution are added to each well of the Flashplate in order to obtain a final substrate concentration of 10 μM during the enzymatic reaction performed in a final volume of the reaction medium of 100 μL (cf. below).
Intermediate dilutions of inhibitors (products of the invention) at various concentrations are prepared in DMSO from stock solutions at 10 mM in separate tubes. Dilutions at 1000 μM, 333.3 μM, 111.1 μM, 37.03 μM, 12.35 μM, 4.11 μM and 1.37 μM are thus prepared. One μL of each of these solutions (or 1 μL of DMSO for the controls) is transferred into the wells of the test plate.
19 μl of a solution of a mixture of adenosine triphosphate (ATP) and of ATPγ^33P in kinase buffer at a total concentration of 5.26 μM of ATP and 52.6 μCi/ml of ^33P are then added to each well. The enzymatic reaction is initiated by adding 10 μL per well of a 200 nM solution of CDK2/cycline E in kinase buffer containing 1 mM of dithiothreitol (or 10 μL of kinase buffer containing 1 mM of dithiothreitol for the reaction blanks).
After addition of each of the reagents, the final volume of each well is 100 μL, the final concentration of substrate is 10 μM, the final inhibitor concentrations are 10 μM, 3.33 μM, 1.11 μM, 0.37 μM, 0.123 μM, 0.041 μM and 0.014 μM (according to the concentration of the intermediate dilution), the final ATP concentration is 1 μM, the final amount of ^33P is 1 μCi/well, and the final concentration of CDK2/cycline E complex is 20 nM.
After addition of all of the reagents, the test plate is incubated at 30° C. with orbital shaking at 650 rpm.
When the incubation is complete, the plate is washed three times with 300 μL per well of PBS (phosphate-buffered saline, pH=7.4, without calcium or magnesium, reference 10010-015, Gibco BRL). The incorporation of ^33P to the peptide is quantified by scintillation counting with a Packard Topcount.NXT machine.

The target of another experiment is T2, Tie2 (Homo sapiens, UniProt Q02763).
T2 construct: amino acids of the intracellular domain 776-1124; made in house; host or cells: baculovirus expression (pFastBacGT vector)
Kind of experiment: Tie2 kinase test, phosphorylation of PLC with GST-Tie2. The note with it: GST-Tie2 intracellular domain 776-1124. The protocol: The coding sequence of human Tie2 corresponding to the amino acids of the intracellular domain 776-1124 was generated by PCR using the cDNA isolated from a human placenta as a model. This sequence was introduced into a pFastBacGT baculovirus expression vector in the form of a GST fusion protein.
The inhibitory effect of the molecules is determined in a test of phosphorylation of PLC with Tie2 in the presence of GST-Tie2 purified to about 80% homogeneity. The substrate is composed of the SH2-SH3 fragments of PLC expressed in the form of a GST fusion protein.
The kinase activity of Tie2 is measured in a MOPS 20 mM pH 7.2 buffer, containing 10 mM MgCl2, 10 mM MnCl2, 1 mM DTT, 10 mM of glycerophosphate. In a 96-well FlashPlate plate maintained on ice, a reaction mixture is deposited, composed of 70 μL of kinase buffer containing 100 ng of enzyme GST-Tie2 per well. Next, 10 μL of the test molecule diluted in DMSO to a maximum concentration of 10% are added. For a given concentration, each measurement is performed four times. The reaction is initiated by adding 20 μL of solution containing 2 μg of GST-PLC, 2 μm of cold ATP and 1 μCi of ^33P[ATP]. After incubation for one hour at 37° C., the reaction is stopped by adding 1 volume (100 μl) of 200 mM EDTA. After removal of the incubation buffer, the wells are washed three times with 300 μL of PBS. The radioactivity is measured on a MicroBeta1450 Wallac.
The inhibition of the Tie2 activity is calculated and expressed as a percentage of inhibition relative to the control activity determined in the absence of compound.

The next experiment has as its target T3, Aurora1 (Homo sapiens, UniProt Q96GD4).
T3 construct: His tag (N); made in house
Kind of experiment: Aurora1 enzymatic test, NuMA phosphorylation with [33P]ATP, Flashplate. To be noted: Aurora-B/INCENP-C3 recombinant complex, 1 μM ATP. The method, then:
(§1) The inhibitory effect of compounds with respect to the kinases Aurora1 and Aurora2 is determined by means of an enzymatic test using radioactivity detection.
(§2) The kinase activity of Aurora1 and Aurora2 is evaluated via the phosphorylation of the substrate Numa-histidine in the presence of radiolabelled ATP ([^33P]ATP) using 96-well Flashplate plates in which the nickel chelate is bound to the surface of the microplate. The amount of ^33P phosphate incorporated into the NuMA substrate is proportional to the activity of the enzyme Aurora1 or Aurora2.
Aurora1: Aurora-B/INCENP-C3 recombinant complex, purified to about 50%, the N-terminal end of Aurora-B of which has been labeled with histidine.
(§3) NuMA (nuclear protein that combines with the mitotic apparatus): 424-amino acid fragment, expressed in E. coli, the N-terminal end of which has been labeled with histidine, and used as substrate for the two Aurora enzymes.
(§4) The microplates used are 96-well Flash-Plate plates, nickel chelate (Perkin-Elmer, model SMP107).
(§5) The products to be evaluated are incubated in a reaction volume of 100 μL per well, in the presence of 10 nM of Aurora1 or Aurora2, 500 nM of NuMA substrate in a buffer composed of 50 mM Tris/HCl (pH 7.5), 50 mM NaCl, 5 mM MgCl2 (Aurora-B) or 10 mM MgCl2 (Aurora-A) and 1 mM DTT, at 37° C.
(§6) 80 μL of enzyme/substrate incubation buffer are distributed in each well, followed by 10 μL of product to be evaluated, at variable concentrations. The reaction is initiated by adding 1 μM final of ATP containing 0.2 μCi of [^33P]ATP (10 μL). After incubating for 30 minutes, the reaction is quenched by simple removal of the reaction buffer and each well is washed twice with 300 μl of Tris/HCl buffer. The radioactivity is then measured in each well using a Packard, Top-Count model scintillation machine.
(§7) The control enzymatic activity of Aurora is expressed by the number of counts per minute obtained over 30 minutes after subtracting the background noise (reaction mixture containing no enzyme). The evaluation of the various test products is expressed as a percentage of inhibition of the Aurora activity relative to the control.

A further experiment deals with T4, Aurora2 (Homo sapiens, UniProt O14965).
T4 construct: Aurora2: whole recombinant protein comprising an N-terminal histidine tail; His tag (N); made in house; host or cells: E. coli
T4 sequence (O14965 1-403): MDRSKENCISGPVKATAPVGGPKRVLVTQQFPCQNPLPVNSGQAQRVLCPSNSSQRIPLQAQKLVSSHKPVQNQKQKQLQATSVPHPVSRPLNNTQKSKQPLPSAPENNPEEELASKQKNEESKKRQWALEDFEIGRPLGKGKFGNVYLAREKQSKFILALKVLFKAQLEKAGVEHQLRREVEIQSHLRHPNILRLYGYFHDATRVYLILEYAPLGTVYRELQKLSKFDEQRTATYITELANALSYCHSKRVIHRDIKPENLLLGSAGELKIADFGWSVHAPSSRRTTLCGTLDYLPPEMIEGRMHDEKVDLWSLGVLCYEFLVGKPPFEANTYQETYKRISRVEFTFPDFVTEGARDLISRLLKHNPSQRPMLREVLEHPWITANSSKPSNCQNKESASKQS
Kind of experiment: Aurora2 enzymatic test, NuMA phosphorylation with [33P]ATP, Flashplate. To be noted: whole recombinant protein, 1 μM ATP. The protocol: as §1, §2
Aurora2: whole recombinant protein comprising an N-terminal histidine tail, was expressed in E. coli and purified to more than 82%.
as §3, §4, §5, §6, §7

T3 sequence (Q96GD4 whole entry, species assumed): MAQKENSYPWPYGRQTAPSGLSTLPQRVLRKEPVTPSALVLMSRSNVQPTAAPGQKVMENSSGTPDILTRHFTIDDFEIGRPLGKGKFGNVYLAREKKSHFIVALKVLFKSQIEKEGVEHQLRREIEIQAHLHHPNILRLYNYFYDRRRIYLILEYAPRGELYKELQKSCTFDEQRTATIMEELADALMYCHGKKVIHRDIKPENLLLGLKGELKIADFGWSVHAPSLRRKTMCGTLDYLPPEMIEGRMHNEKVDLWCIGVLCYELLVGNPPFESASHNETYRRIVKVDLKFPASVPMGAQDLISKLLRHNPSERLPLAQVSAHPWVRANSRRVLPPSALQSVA
T3 sequence (Q9NQS7 835-903 partner limits assumed, species assumed): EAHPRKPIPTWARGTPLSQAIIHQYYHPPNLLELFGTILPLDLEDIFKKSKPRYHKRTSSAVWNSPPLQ
T2 sequence (Q02763 776-1124): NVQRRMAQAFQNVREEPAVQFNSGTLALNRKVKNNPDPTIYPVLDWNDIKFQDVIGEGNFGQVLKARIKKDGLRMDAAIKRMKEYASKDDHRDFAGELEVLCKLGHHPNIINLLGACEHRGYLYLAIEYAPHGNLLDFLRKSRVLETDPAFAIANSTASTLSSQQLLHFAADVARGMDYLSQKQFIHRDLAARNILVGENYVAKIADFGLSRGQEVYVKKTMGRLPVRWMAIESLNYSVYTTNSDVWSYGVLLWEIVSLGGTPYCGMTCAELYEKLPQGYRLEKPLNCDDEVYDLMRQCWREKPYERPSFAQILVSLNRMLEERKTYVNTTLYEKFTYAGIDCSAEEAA

As for `CN(NC(=O)c1cc2c(NC(=O)c3cccc(CN4CCOCC4)c3)n[nH]c2s1)c1ccccc1` [Example 22a, N-[5-(N′-methyl-N′-phenylhydrazinocarbonyl)-1H-thieno[2,3-c]pyrazol-3-yl]-3-morpholin-4-ylmethylbenzamide], the negative logarithm of the IC50 (pIC50) was 6.14 against CDK2/cycline E, 5.66 against Tie2, 6.83 at Aurora1 and 7.09 on Aurora2.

Consider `CN1CCN(c2ccc(C(=O)Nc3n[nH]c4sc(C(=O)NN(Cc5ccccc5)c5ccccc5)cc34)cc2)CC1` [Example 34, N-[5-(N′-benzyl-N′-phenylhydrazinocarbonyl)-1H-thieno[2,3-c]pyrazol-3-yl]-4-(4-methylpiperazin-1-yl)benzamide], for which the pIC50 is 5.80 against CDK2/cycline E, 7.42 against Tie2, 7.89 at Aurora1 and 8.30 on Aurora2.

Regarding `CN1CCCN(Cc2ccc(C(=O)Nc3n[nH]c4sc(C(=O)NN(C)c5ccccc5)cc34)cc2)CC1` [Example 12a, 4-(4-methylperhydro-1,4-diazepin-1-ylmethyl)-N-[5-(N′-methyl-N′-phenylhydrazinocarbonyl)-1H-thieno[2,3-c]-pyrazol-3-yl]benzamide], the negative-log IC50 (pIC50) on CDK2/cycline E was 6.90; on Tie2, 6.25; on Aurora1, 6.89; at Aurora2 it was 7.51.

Consider `CCN(NC(=O)c1cc2c(NC(=O)c3ccc(N4CCN(C)CC4)cc3)n[nH]c2s1)c1ccccc1C` [Example 39, N-[5-(N′-ethyl-N′-o-tolylhydrazinocarbonyl)-1H-thieno[2,3-c]pyrazol-3-yl]-4-(4-methylpiperazin-1-yl)benzamide], for which the pIC50 against CDK2/cycline E is 7.28; on Tie2 it was 7.66; on Aurora1, 7.82; at Aurora2, 7.57.

On to `CN1CCN(Cc2cccc(C(=O)Nc3n[nH]c4sc(C(=O)NN(C)c5ccc(Cl)cc5)cc34)c2)CC1` [Example 16b, N-[5-(N′-(4-chlorophenyl)-N′-methylhydrazinocarbonyl)-1H-thieno[2,3-c]pyrazol-3-yl]-3-(4-methylpiperazin-1-ylmethyl)benzamide], for which the pIC50 against CDK2/cycline E was 6.52; against Tie2, 5.70; at Aurora1 it was 6.03; at Aurora2, 6.22.

For `COc1ccc(C(=O)Nc2n[nH]c3sc(C(=O)NNc4ccccc4)cc23)cc1` [Example 1], the pIC50 against CDK2/cycline E was 6.75; at Tie2 it was 6.93; on Aurora1 it was 8.10; at Aurora2 it was 8.10.

For the molecule `COc1ccc(C(=O)Nc2n[nH]c3sc(C(=O)NNCc4ccccc4)cc23)cc1` [Example 26, N-[5-(N′-benzylhydrazinocarbonyl)-1H-thieno[2,3-c]pyrazol-3-yl]-4-methoxybenzamide], the pIC50 on CDK2/cycline E is 7.12; against Tie2, 6.76; on Aurora1, 7.38; on Aurora2 it was 7.64.

Take `CN(NC(=O)c1cc2c(NC(=O)c3ccc(CN4CCCC4)cc3)n[nH]c2s1)c1ccc(Cl)cc1` [Example 18b, N-[5-(N′-(4-chlorophenyl)-N′-methylhydrazinocarbonyl)-1H-thieno[2,3-c]pyrazol-3-yl]-4-pyrrolidin-1-ylmethylbenzamide]: the negative-log IC50 (pIC50) against CDK2/cycline E was 7.02; against Tie2, 6.41; on Aurora1, 6.54; on Aurora2, 7.30.

`CN1CCCN(c2ccc(C(=O)Nc3n[nH]c4sc(C(=O)NN(C)c5ccccc5)cc34)cc2)CC1` [Example 47, 4-(4-methyl[1,4]diazepan-1-yl)-N-[5-(N′-methyl-N′-phenylhydrazinocarbonyl)-1H-thieno[2,3-c]pyrazol-3-yl]benzamide]: the results for the negative-log IC50 (pIC50) against CDK2/cycline E, on Tie2 and at Aurora1 were 6.54, 7.12 and 8.10, respectively.

Regarding `CCN(NC(=O)c1cc2c(NC(=O)c3ccc(N4CCN(C)CC4)cc3)n[nH]c2s1)c1ccccc1` [Example 33, N-[5-(N′-ethyl-N′-phenylhydrazinocarbonyl)-1H-thieno[2,3-c]pyrazol-3-yl]-4-(4-methylpiperazin-1-yl)benzamide], the negative-log IC50 (pIC50) at CDK2/cycline E is 7.00; against Tie2 it was 8.10; on Aurora1, 7.89.

One may read the pIC50 as the IC50 on a negative log10 scale, so that one unit is a factor of ten.
